# Like-named read-outs stand apart in the source and are kept apart here.
# Assays:
# [1] = tested on: B16G/F10 melanoma cells; test: B16/F10 melanoma lung colonies in mice; assay type: in vivo, C57BL/6 mice
# Procedure: There were 5 treatment groups in the study, with 6 mice arbitrarily allocated to each group. The treatment groups were as follows:
# The dose volume was the daily intake for all animals. Test substances were administered to mice in Groups 2, 3, 4 and 5, as solutions in sterile water for 41 h 32 min prior to tumour cell injection (Day 0 is the day of tumour cell injection).
# Mice were injected intravenously, via a tail vein, with 0.1 ml of a suspension of B16G/F10 melanoma cells (approximately 1×10^5 cells/mouse) on Day 0.
# All dosing solutions were prepared on the first day of dosing (Day −2) and were kept at room temperature.
# Mice: Female C57BL/6 mice were supplied and delivered by Charles River UK Limited. The animals were approximately 6-8 weeks of age on arrival. The animals were acclimatized for 29 days prior to the start of the study, and the body weights at the start of dosing were in the range 18-23 g. During the study, the animals were housed in groups of up to 6 in pediatric filter-topped cages with sawdust bedding (autoclaved for sterility). The room and cages were cleaned at regular intervals each week to maintain hygiene. The mice were fed an expanded rodent diet of RM1(E) SQC (batch number 3822; Special Diets Services, Witham, UK) ad libitum and allowed access to sterilized water (N.V. Nutricia, Zoetermeer, The Netherlands). For Groups 2, 3, 4 and 5, the drinking water also contained the appropriate level of test substance for the duration of the dosing period. […] During the acclimatization and study period the temperature range in the rooms was 18-22° C. and the humidity range was 44-79%.
# Tumour challenge: B18F10 murine tumour cells (Shrayer D, Bogaars H. Hearing V. J. Maizel A. & Wanebo H. Further characterization of a clinically relevant model of melanoma metastasis and an effective vaccine. Cancer Immunology, Immunotherapy 1995: 40; 277-282) were harvested from sub-confluent cultures growing in vitro, using minimum trypsination. They were washed in sterile phosphate buffered saline (PBS) and the number of viable cells determined. Cells were resuspended in sterile PBS at a concentration of […]. The mice were intravenously injected, via a tail vein, with 0.1 ml of cell suspension (i.e. approximately 1×10^5 cells/mouse) on Day 0. The mice were examined daily for signs of laboured breathing or distress due to extensive metastatic disease. Mice were exposed to the appropriate test substance for 41 h 32 min prior to tumour cell injection (from Day −2 to Day 0). Following tumour cell implant, the test substances were removed, and animals in all groups received drinking water alone for the remainder of the study.
# Sampling and analysis: The animals were terminated on Day 21 (21 days after injection of the tumour cells). Blood samples were taken from 3 mice from each group on the day of termination. Animals were anaesthetized with carbon dioxide and blood samples of maximal volume taken by cardiac puncture and collected in plain tubes. Samples were left to clot at room temperature for a minimum of 1 h prior to serum removal, Serum samples were stored at approximately −70° C. prior to analysis. Immediately after performing the bleeds, the spleens were removed from the 3 selected mice. The spleens from these mice were pooled in a petri dish with approximately 3-5 ml of RPMI 1640 tissue culture medium (batch number 3092202; Invitrogen, Paisley, UK) containing 0.52% penicillin/streptomycin (Pen/Strep; batch number 44K2412; Sigma Aldrich, Poole, UK) prior to splenocyte isolation. The spleens from each group were placed in a glass homogeniser with an additional 10-15 ml of medium and homogenised until opaque. The suspension was then placed in a 50 ml centrifuge tube. On occasions when there was significant cell debris, this was allowed to settle before removing the suspension and placing in a fresh tube. The homogenate was then centrifuged at approximately 200×‘g’ for 5 min at approximately 4° C.
# [2] = biological target: T1, α-D-mannosidase (Canavalia ensiformis, UniProt C0HJB3); test: Glycosidase inhibition: α-D-mannosidase; assay type: biochemical, Jack beans (Canavalia ensiformis)
# T1 construct: purchased Sigma
# T1 sequence (C0HJB3 whole entry): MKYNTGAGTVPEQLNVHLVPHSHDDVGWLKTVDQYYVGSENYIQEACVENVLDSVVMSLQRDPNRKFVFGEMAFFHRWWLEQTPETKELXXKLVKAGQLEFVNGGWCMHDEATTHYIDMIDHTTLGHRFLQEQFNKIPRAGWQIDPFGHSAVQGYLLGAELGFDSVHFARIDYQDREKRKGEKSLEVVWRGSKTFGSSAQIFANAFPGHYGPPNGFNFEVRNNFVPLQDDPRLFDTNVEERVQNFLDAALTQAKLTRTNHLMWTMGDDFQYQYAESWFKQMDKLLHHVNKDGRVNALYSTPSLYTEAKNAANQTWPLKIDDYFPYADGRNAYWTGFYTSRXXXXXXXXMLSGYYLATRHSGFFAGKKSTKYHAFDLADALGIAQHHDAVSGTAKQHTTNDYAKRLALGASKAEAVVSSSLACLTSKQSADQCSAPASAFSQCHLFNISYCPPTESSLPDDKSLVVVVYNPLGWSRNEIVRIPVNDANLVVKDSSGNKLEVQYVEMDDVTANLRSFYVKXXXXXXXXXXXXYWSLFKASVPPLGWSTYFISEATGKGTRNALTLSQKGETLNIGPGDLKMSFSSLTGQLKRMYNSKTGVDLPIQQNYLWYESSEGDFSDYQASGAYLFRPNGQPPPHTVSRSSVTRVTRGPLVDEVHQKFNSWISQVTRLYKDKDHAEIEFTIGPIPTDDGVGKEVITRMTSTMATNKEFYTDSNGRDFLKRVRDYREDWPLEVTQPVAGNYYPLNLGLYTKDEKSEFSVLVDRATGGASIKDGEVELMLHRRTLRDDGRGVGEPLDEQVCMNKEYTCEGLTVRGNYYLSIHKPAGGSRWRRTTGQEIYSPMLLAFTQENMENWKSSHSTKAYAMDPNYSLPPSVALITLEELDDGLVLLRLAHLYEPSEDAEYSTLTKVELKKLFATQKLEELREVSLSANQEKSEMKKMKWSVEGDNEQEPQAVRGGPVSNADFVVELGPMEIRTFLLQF
# Procedure: All enzymes were purchased from Sigma, as were the appropriate p-nitrophenyl substrates. Assays were carried out in microtitre plates. Enzymes were assayed in 0.1M citric acid/0.2M di-sodium hydrogen phosphate (McIlvaine) buffers at the optimum pH for the enzyme. All assays were carried out at 20° C.
# Endpoint absorbances were read at 405 nm with a Biorad microtitre plate reader (Benchmark). Water was substituted for the inhibitors in the blanks.
# [3] = tested on: dendritic cells; test: Induction of IL-12 secretion in dendritic cells (ELISA); assay type: cell-based, BALB/c mice; conditions: 50 μg/ml
# [4] = biological target: T2, α-D-galactosidase (Coffea arabica, UniProt Q42656); test: Glycosidase inhibition: α-D-galactosidase; assay type: biochemical, Green coffee beans (Coffea sp.); conditions: 1 mg/ml
# T2 construct: purchased Sigma
# T2 sequence (Q42656 16-378): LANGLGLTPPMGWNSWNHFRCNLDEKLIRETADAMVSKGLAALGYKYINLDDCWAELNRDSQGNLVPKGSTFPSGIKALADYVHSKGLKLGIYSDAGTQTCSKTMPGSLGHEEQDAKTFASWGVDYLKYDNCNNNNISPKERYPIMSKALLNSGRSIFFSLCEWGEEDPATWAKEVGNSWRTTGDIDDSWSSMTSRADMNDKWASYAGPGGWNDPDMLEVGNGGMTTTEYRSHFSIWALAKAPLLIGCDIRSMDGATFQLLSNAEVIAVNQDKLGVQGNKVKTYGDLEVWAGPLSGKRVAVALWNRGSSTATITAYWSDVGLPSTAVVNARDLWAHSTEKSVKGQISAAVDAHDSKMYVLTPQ
# Procedure: (§1) All enzymes were purchased from Sigma, as were the appropriate p-nitrophenyl substrates. Assays were carried out in microtitre plates. Enzymes were assayed in 0.1M citric acid/0.2M di-sodium hydrogen phosphate (McIlvaine) buffers at the optimum pH for the enzyme. All assays were carried out at 20° C. For screening assays the incubation assay consisted of 10 μl of enzyme solution, 10 μl of inhibitor solution (made up in water) and 50 μl of the appropriate 5 mM p-nitrophenyl substrate (3.57 mM final conc.) made up in McIlvaine buffer at the optimum pH for the enzyme.
# (§2) The reactions were stopped with 0.4M glycine (pH 10.4) during the exponential phase of the reaction, which was determined at the beginning of the assay using blanks with water, which were incubated for a range of time periods to measure the reaction rate using 5 mM substrate solution. Endpoint absorbances were read at 405 nm with a Biorad microtitre plate reader (Benchmark). Water was substituted for the inhibitors in the blanks.
# [5] = tested on: N-acetyl-β-D-glucosaminidase; test: Glycosidase inhibition: N-acetyl-β-D-glucosaminidase; assay type: biochemical, Bovine; conditions: 1 mg/ml
# Procedure: as §1, §2
# [6] = tested on: α-D-glucosidase; test: Glycosidase inhibition: α-D-glucosidase, Bacillus; assay type: biochemical, Bacillus stearothermophilus; conditions: 1 mg/ml
# Procedure: as §1, §2
# [7] = tested on: β-D-galactosidase; test: Glycosidase inhibition: β-D-galactosidase; assay type: biochemical, Bovine; conditions: 1 mg/ml
# Procedure: as §1, §2
# [8] = biological target: T3, α-D-glucosidase (Oryza sativa subsp. japonica, UniProt Q653V7); test: Glycosidase inhibition: α-D-glucosidase, rice; assay type: biochemical, rice (Oryza sativa); conditions: 1 mg/ml
# T3 construct: purchased Sigma
# T3 sequence (Q653V7 34-885): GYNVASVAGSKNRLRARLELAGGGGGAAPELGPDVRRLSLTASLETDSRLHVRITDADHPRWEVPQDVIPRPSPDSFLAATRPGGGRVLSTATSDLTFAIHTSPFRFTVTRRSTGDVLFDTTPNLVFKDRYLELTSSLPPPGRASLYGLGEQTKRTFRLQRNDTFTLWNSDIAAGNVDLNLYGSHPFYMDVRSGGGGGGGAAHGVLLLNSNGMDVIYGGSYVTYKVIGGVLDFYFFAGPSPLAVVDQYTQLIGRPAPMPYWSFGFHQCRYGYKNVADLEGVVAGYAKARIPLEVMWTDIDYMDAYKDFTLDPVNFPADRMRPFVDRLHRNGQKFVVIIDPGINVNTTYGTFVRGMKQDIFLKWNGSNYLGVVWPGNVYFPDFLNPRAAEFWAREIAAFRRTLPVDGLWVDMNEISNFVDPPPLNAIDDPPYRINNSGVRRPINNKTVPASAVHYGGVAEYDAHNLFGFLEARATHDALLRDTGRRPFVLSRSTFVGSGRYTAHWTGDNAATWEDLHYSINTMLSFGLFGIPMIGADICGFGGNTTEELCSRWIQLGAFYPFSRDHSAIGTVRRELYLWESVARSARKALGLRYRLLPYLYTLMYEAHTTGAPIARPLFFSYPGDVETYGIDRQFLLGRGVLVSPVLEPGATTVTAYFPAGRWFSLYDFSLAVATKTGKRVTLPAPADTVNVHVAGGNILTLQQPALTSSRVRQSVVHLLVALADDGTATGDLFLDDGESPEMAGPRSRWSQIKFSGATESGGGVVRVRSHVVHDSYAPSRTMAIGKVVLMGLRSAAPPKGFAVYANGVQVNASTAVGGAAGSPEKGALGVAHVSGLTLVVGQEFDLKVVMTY
# Procedure: as §1, §2
# [9] = biological target: T4, α-D-glucosidase (Saccharomyces cerevisiae, UniProt P53341); test: Glycosidase inhibition (p-nitrophenyl substrate): α-D-glucosidase, yeast; assay type: biochemical, Saccharomyces cerevisiae (Baker's yeast); conditions: for inhibition at 1000 µg/mL: 1 mg/ml
# T4 construct: purchased Sigma
# T4 sequence (P53341 whole entry): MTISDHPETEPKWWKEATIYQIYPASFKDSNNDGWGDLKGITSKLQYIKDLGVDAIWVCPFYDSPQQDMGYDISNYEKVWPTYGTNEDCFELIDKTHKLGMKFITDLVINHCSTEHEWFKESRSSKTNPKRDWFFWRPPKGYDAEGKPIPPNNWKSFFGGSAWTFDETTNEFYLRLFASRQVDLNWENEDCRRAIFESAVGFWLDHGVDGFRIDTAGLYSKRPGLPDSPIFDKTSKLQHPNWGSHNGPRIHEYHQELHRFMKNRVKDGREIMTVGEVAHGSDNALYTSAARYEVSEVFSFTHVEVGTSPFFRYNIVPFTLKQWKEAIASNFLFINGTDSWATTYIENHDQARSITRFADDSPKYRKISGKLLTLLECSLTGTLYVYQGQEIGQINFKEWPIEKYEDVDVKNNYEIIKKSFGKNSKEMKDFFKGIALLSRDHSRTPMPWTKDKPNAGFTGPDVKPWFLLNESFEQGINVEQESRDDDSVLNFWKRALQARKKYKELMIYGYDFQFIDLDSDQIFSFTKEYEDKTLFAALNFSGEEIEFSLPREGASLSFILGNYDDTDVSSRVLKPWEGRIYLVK
# Procedure: as §1, §2
# [10] = biological target: T5, α-L-fucosidase (Bos taurus, UniProt Q2KIM0); test: Glycosidase inhibition: α-L-fucosidase; assay type: biochemical, Bovine; conditions: 1 mg/ml
# T5 construct: purchased Sigma
# T5 sequence (Q2KIM0 23-468): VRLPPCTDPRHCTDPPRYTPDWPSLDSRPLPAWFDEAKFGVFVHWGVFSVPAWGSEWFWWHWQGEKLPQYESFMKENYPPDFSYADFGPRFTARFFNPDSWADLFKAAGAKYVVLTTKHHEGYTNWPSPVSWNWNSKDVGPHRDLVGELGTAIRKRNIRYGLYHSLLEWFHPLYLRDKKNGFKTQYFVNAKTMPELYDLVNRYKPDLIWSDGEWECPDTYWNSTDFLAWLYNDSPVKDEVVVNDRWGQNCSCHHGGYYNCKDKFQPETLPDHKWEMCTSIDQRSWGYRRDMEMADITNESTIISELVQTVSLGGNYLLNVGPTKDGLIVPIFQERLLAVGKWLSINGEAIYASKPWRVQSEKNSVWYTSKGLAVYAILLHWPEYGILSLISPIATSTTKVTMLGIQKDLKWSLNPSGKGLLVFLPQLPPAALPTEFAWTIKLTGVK
# Procedure: as §1, §2
# [11] = tested on: Naringinase; test: Glycosidase inhibition: Naringinase; assay type: biochemical, Penecillium decumbens; conditions: 1 mg/ml
# Procedure: as §1, §2
# [12] = tested on: β-D-glucosidase; test: Glycosidase inhibition: β-D-glucosidase, almond; assay type: biochemical, Almonds (Prunus sp.)
# Procedure: as §1, §2
# [13] = tested on: B16-F10 tumour cells; test: Control of lung metastasis in mice (B16-F10); assay type: in vivo, C57/bl6 mice; conditions: 50 mg/kg s/c on days 2 and 4; lungs on day 14
# Procedure: Mice (C57/bl6 under i/p ketamine anaesthesia) were challenged i/v (tail vein) with 5×10^4 B16-F10 tumour cells in a final volume of 100 μl per mouse on day 0. Test compounds (50 mg/kg in 200 μl sterile non-pyrogenic saline) were administered sic (right flank) on days 2 and 4. On day 14 the mice were sacrifices and the lungs dissected and stained in Indian ink solution (150 ml bidistilled water, 30 ml India Ink, 4 drops NH4OH) for 10 minutes then fixed for at least 24 hr in Fakete's solution (90 ml 37% formaldehyde, 900 ml 70% EtOH and 45 ml glacial acetic acid). The metastases in the stained and fixed lungs could then be visualized, counted and photographed.
# [14] = biological target: T6, rabbit small intestine trehalase (Oryctolagus cuniculus, UniProt P19813); test: Inhibition of rabbit small intestine trehalase; assay type: biochemical
# T6 construct: from tissue; host or cells: rabbit small intestine
# T6 sequence (P19813 20-555): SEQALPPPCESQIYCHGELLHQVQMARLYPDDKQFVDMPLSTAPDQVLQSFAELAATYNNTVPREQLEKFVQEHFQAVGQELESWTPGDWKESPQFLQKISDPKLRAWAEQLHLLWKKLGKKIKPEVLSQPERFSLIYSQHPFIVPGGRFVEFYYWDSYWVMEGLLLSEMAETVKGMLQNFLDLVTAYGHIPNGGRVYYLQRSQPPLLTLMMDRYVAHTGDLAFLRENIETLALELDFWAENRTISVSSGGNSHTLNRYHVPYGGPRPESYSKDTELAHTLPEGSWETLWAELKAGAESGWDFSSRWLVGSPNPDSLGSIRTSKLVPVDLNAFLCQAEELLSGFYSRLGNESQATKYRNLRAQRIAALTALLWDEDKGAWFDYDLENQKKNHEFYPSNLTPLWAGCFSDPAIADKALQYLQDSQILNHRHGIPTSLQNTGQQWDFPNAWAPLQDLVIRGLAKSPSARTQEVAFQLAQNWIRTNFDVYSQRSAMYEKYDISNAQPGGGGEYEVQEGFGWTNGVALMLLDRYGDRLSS
# [15] = biological target: T7, rabbit small intestine sucrase (Oryctolagus cuniculus, UniProt P07768); test: Inhibition of rabbit small intestine sucrase; assay type: biochemical; conditions: 700 μM
# T7 construct: from tissue; host or cells: rabbit small intestine
# [16] = biological target: rabbit gut mucosa α-D-glucosidase; test: Inhibition of rabbit gut mucosa α-D-glucosidase; assay type: biochemical
# [17] = tested on: Na^+-dependent D-glucose uptake; test: Na+-dependent D-glucose uptake into intestinal brush border membrane vesicles; assay type: biochemical, ovine
# [18] = biological target: T8, rabbit small intestine lactase (Oryctolagus cuniculus, UniProt P09849); test: Inhibition of rabbit small intestine lactase; assay type: biochemical
# T8 construct: from tissue; host or cells: rabbit small intestine
# T8 sequence (P09849 867-1926): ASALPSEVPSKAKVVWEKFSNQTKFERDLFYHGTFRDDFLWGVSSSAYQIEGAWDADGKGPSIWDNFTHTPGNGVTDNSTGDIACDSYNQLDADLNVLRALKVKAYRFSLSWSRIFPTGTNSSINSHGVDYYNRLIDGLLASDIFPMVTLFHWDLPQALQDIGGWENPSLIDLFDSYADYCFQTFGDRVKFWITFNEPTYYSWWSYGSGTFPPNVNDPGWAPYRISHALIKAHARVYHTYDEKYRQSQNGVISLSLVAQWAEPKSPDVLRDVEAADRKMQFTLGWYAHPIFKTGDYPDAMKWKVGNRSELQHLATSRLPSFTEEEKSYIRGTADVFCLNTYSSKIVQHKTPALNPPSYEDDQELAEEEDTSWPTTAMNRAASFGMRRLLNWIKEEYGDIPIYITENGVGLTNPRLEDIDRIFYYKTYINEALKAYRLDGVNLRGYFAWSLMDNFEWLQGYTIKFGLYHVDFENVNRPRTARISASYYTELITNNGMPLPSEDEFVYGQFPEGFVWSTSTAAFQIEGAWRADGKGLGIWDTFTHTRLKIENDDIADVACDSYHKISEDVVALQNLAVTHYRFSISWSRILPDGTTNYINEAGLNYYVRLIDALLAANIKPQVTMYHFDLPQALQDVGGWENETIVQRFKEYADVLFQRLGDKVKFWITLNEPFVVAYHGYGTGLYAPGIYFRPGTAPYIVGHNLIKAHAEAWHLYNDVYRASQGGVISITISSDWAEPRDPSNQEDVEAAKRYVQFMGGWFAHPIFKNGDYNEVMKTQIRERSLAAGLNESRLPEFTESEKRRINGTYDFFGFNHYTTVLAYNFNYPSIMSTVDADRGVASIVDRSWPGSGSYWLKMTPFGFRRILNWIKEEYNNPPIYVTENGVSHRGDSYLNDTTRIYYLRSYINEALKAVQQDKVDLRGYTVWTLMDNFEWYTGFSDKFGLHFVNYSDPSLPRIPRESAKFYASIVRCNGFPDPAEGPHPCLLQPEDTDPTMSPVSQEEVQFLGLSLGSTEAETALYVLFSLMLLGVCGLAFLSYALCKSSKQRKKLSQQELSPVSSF
# [19] = tested on: spleen cells; test: Cytokine modulation in spleen cells (IFN-γ); assay type: cell-based, BALB/c mice; conditions: for IFN-γ: Table 3.2
# Procedure: BALB/c male and female mice bred and maintained at the University of Strathclyde under conventional conditions were used at varying age.
# Cells suspensions were prepared by using the end of a syringe and grinding the spleen through a wire mesh. The cell suspension was then centrifuged at 1000 rpm for 5 minutes. To remove the erythrocytes, the cell pellet was resuspended in Boyle's solution (Tris 0.17M & Ammonium Chloride 0.16M) and centrifuged again for 5 minutes. The pellet was then washed in medium a further two times, then resuspended in 3 mls medium. A cell count was then carried out.
# All spleen cell experiments were carried out in 96-well tissue culture plates. […] Unstimulated wells contained 100 μl of cells and 100 μl of medium. The stimulated wells contained 100 μl of cells plus 50 μl of LPS at 1 μg/ml or 50 μl anti-CD3 at 0.5 μg/ml and 50 μl of medium. The remaining wells contained 100 μl cells, 5 μl of MNLP compound and either 50 μl of anti-CD3 or medium alone.
# The appropriate Mabs and standards were used according to the protocol described for IL-12 (described in Example 1, above).
# [20] = read-out: % inhibition, mannosidase
compound,measurement,setting,value
"O[C@H]1[C@H]2[C@H](O)CCCN2C[C@H]1O [Swainsonine (4), Swainsonine, reference compound]",Colony Count,"[1]; 3 μg/ml in drinking water before tumour cell injection, Day 21, mean ± s.e.m.",21.33 ± 4.11
same,% Reduction,"[1]; 3 μg/ml in drinking water, versus vehicle",69%
same,inhibition at 1000 µg/mL,[2]; [20],74%
same,induction of IL-12 secretion,[3],failed to induce IL-12 secretion
"OCCN1[C@H](CO)[C@@H](O)[C@H](O)[C@H]1CO [N-hydroxyethyl DMDP, N-hydroxyethyl-2,5-dihydroxymethyl-3,4-dihydroxypyrrolidine]",inhibition at 1000 µg/mL,"[4]; read-out: % inhibition, α-galactosidase",7%
same,"% inhibition, N-acetyl-β-gluc",[5],13%
same,inhibition at 1000 µg/mL,"[2]; read-out: % inhibition, α-mannosidase",11%
same,"% inhibition, α-gluc (Bacillus)",[6],85%
same,"% inhibition, β-galactosidase",[7],73%
same,inhibition at 1000 µg/mL,"[8]; read-out: % inhibition, α-gluc (rice)",43%
same,inhibition at 1000 µg/mL,"[9]; read-out: % inhibition, α-gluc (yeast)",56%
same,inhibition at 1000 µg/mL,"[10]; read-out: % inhibition, α-fucosidase",-4%
same,"% inhibition, Naringinase",[11],22%
same,"% inhibition, β-glucosidase",[12]; 1 mg/ml,64%
same,Metastatic morphology,[13],Metastasis restricted to apical tip of lung
"O[C@H]1[C@H](O)[C@@H](O)CN2CC[C@H](O)[C@H]12 [Castanospermine (20), Castanospermine, reference compound]",inhibition at 1000 µg/mL,"[4]; first galactosidase line, read-out: % inhibition, galactosidase",-3%
same,inhibition at 700 µM,[14],> 50%
same,"% inhibition, N-acetyl-β-gluc",[5],16%
same,inhibition of rabbit small intestine sucrase,[15],inhibited
same,IC50,[16],8 µM
same,inhibition at 1000 µg/mL,[2]; [20],9%
same,Glucose uptake,"[17]; initial rate, competition with labelled D-glucose, control 240",225 pmol/s/mg
same,"glucose transport, effect",[17]; versus control,slightly inhibited
same,"% inhibition, gluc (Bacillus)",[6],6%
same,"% inhibition, galactosidase",[7]; second galactosidase line,16%
same,inhibition at 1000 µg/mL,"[8]; read-out: % inhibition, gluc (rice)",77%
same,inhibition at 700 µM,[18],> 50%
same,inhibition of yeast α-D-glucosidase,[9]; 800 μM,not being inhibitory
same,inhibition at 1000 µg/mL,"[9]; read-out: % inhibition, gluc (yeast)",-8%
same,inhibition at 1000 µg/mL,"[10]; read-out: % inhibition, fucosidase",3%
same,"% inhibition, Naringinase",[11],39%
same,Ki,[12],9 µM
same,"% inhibition, glucosidase",[12]; 1 mg/ml,88%
same,IFN-γ secretion/production in splenocytes,[19],inhibits
same,IFN-γ,[19]; + αCD3,9.0 ng/mL
same,IFN-γ,[19]; treatment alone,<1.0 ng/mL

# From patent publication US20090117083A1, “IMMUNOMODULATORY ALKALOIDS” (M N L PHARMA LIMITED, priority 2004, published 2009)
